Experiments:
[1] = Caco-2 bidirectional permeability assay; assay type: in vitro ADME; conditions: human, Caco-2; B to A permeability divided by A to B permeability
Method: (§1) 10 μM Test article was added to the apical (A) surface of Caco-2 cell monolayers (in HBSS buffer with 0.3% DMSO and 5 μM LY at 37 degrees C.) and compound permeation into the basolateral (B) compartment measured following 90 minutes incubation. This was also performed in the reverse direction (basolateral to apical) to investigate active transport. LC-MS/MS is used to quantify levels of both the test and standard control compounds. Efflux ratio was calculated by dividing the B to A permeability by the A to B permeability.
(§2) Drug permeability:Papp=(VA/(Area×time))×([drug]accepter/(([drug]initial,donor)×Dilution Factor)
(§3) The permeability of the compounds of the invention was assessed in a standard caco-2 bidirectional permeability assay (see general methods).

Caco-2 cell monolayers = assay: Caco-2 bidirectional permeability assay; assay type: in vitro ADME; conditions: Caco-2, 10 μM test article, 90 minutes
Method: as §1, §2, §3

[2] = system: peripheral blood mononuclear cells (PBMC); assay: Marker expression on stimulated PBMC by flow cytometry; assay type: cell-based, human; conditions: 24 h
Method: Human peripheral blood mononuclear cells (PBMCs) were purified from healthy donors with Ficoll-Paque density centrifugation. Cells were cultured in complete RPMI-1640 media (Invitrogen) supplemented with 25 mM HEPES, L-glutamine, Sodium pyruvate (Sigma), 10% fetal bovine serum, 100 μg/mL penicillin and 100 μg/mL streptomycin (Hyclone) for 24-72 hours in 37° C., 5% CO2 and stimulated with and increasing concentrations of compound 1 and 2. Cells were then washed in PBS and stained with monoclonal antibodies specific for cell surface markers (BD Pharmingen) and analysed with flow cytomtetry using a BD FACS Canto II flow cytometer. All samples were tested in duplicates.
Human peripheral blood mononuclear cells (PBMCs) were purified from healthy donors with Ficoll-Paque density centrifugation. Cells were cultured in complete RPMI-1640 medium (Invitrogen) supplemented with 25 mM HEPES, L-glutamine, Sodium pyruvate (Sigma), 10% fetal bovine serum, 100 μg/mL penicillin and 100 μg/mL streptomycin (Hyclone). […] The cells were removed from the plate, washed in PBS and analysed for expression of cell specific surface markers and MHC class I with flow cytomtery using monoclonal antibodies from BD Pharmingen and a FACS Canto II flow cytometer.

macrophages = assay: Cytokine secretion from macrophages (cytometric bead assay); assay type: cell-based, human
Method: FIG. 10: Interferon-gamma secretion (as measured by cytometric bead assay) from macrophages stimulated with indicated compound for 48 h.
(§4) FIG. 11: Chemokine RANTES secretion (as measured by cytometric bead assay) from PBMC or macrophages stimulated with indicated compound for 48 h.
(§5) FIG. 12: IL12p70 secretion (as measured by cytometric bead assay) from PBMC or macrophages stimulated with indicated compound for 48 h.
(§6) FIG. 13: IL1 b secretion (as measured by cytometric bead assay) from PBMC, macrophages or CD4 T cells stimulated with indicated compound for 48 h.
Study 9: Macrophages from healthy donors where exposed to compounds 1 or 2 for 48 hours. […] Compound 1 is therefore able to induce IFN-gamma secretion in macrophages from healthy donors.
(§7) Study 10: PBMCs and macrophages where exposed to compounds 1 or 2 for 2 days (FIG. 11).
(§8) Study 11: PBMCs and macrophages where exposed to compounds 1 and 2 for 2 days.
(§9) Study 12: PBMCs, macrophages and CD4+ T cells where exposed to compounds 1 and 2 for 2 days.

PBMCs = assay: Cytokine secretion from PBMCs (cytometric bead assay); assay type: cell-based, human; conditions: 2 days
Method: as §4, §5, §6, §7, §8, §9

C57bl/6 mice = assay: MHC class I expression on CD11b+ splenocytes of mice after i.v. injection; assay type: in vivo; conditions: spleen removed 24 h later
Method: FIG. 15: % MHC class I high CD11 b+ cells in spleen of 3 individual C57bl/6 mice injected 24 h previously with indicated compound. MHC class I and CD11 b expression was measured by flow cytometry.
Study 14: Compound 1 or 2 was administered i.v. to C57bl/6 mice.

[3] = system: E. coli, S. salivarius, L. casei, B. longum, M. luteus; assay: MIC assay, summary over all bacterial strains tested; assay type: cell-based; conditions: any of the strains tested
Method: The bioactivity of macrolide compounds against 4 strains of common gut bacteria (Escherichia coli, Streptococcus salivarius subsp. salivarius, Lactobacillus casei and Bifidobacterium longum subsp. infantis) and common mammalian skin isolate Micrococcus luteus, was assessed using the Minimum Inhibitory Concentration (MIC) assay. Bacterial strains were purchased from DSMZ (Brunswick, Germany) except M. luteus which was obtained from NCIMB, and stored in 20% glycerol at −80° C. Stock solutions (100% DMSO) of positive controls (azithromycin and erythromycin), and of test compounds 1 and 2 were diluted in broth to working stock concentrations of 256 μg/ml (final assay testing concentration range 128 μg/ml to 0.00391 μg/ml). Stock solutions of all other compounds were diluted in broth to working stock concentrations of 128 μg/ml (final assay testing concentration range 64 μg/ml to 0.00195 μg/ml). Bacterial strains were cultivated in appropriate broth in an anaerobic chamber at 37° C., except for M. luteus which was incubated aerobically at 37° C. 18 h cultures were diluted in broth to an OD595 of 0.1 and then further diluted 1:10. In 96-well plates, in duplicate, 200 μl working stock of test compound was transferred to well 1 and serially diluted (1:2) in broth. 100 μl bacterial suspension was aliquoted into each well and mixed thoroughly. Appropriate sterility controls were included and plates were incubated in an anaerobic chamber, or aerobically (M. luteus) at 37° C. for 18 h. The MIC was determined to be the concentration of test compound in the first well with no visible growth.

CC[C@H]1OC(=O)[C@H](C)[C@@H](O[C@H]2C[C@@H](N(C)C)[C@H](O)[C@@H](C)O2)[C@H](C)[C@@H](O)[C@](C)(O)C[C@@H](C)CN(C)[C@H](C)[C@@H](O)[C@]1(C)O [Compound 1]
efflux ratio at 90 minutes, 10 μM [1]: 63 | Papp (Caco-2 cell monolayers): 0.32 × 10^6/cm · s^−1 | activation marker CD69 on CD4+ T cells and B cells ([2]; 1 μM): upregulated | MHC class I molecule (HLA-ABC) on T- and B-cells [2]: upregulation | IL-1 beta secretion in macrophages (macrophages; 2 days): increased | IL-12p70 secretion from macrophages (macrophages; 2 days): secreted IL-12p70 | IFN-gamma secretion from macrophages (macrophages; 48 hours): secreted IFN-gamma | IL-1 beta secretion in PBMCs (PBMCs): slightly | IL-12p70 secretion from PBMCs (PBMCs): secreted IL-12p70 | splenocyte cells with high MHC I expression (CD11b+) (C57bl/6 mice): induced an increase | antibacterial activity against the bacterial strains tested (in words) [3]: no antibacterial activity

From patent US20210040134A1, “COMBINATIONS OF MACROLIDE COMPOUNDS AND IMMUNE CHECKPOINT INHIBITORS” (ISR IMMUNE SYSTEM REGULATION HOLDING AB (PUBL), priority 2018, published 2021)
